Bounds are passed on as bounds.

In the assay the target is T1, 5-hydroxytryptamine receptor 1F (Homo sapiens, UniProt P30939).
T1 sequence (P30939 whole entry): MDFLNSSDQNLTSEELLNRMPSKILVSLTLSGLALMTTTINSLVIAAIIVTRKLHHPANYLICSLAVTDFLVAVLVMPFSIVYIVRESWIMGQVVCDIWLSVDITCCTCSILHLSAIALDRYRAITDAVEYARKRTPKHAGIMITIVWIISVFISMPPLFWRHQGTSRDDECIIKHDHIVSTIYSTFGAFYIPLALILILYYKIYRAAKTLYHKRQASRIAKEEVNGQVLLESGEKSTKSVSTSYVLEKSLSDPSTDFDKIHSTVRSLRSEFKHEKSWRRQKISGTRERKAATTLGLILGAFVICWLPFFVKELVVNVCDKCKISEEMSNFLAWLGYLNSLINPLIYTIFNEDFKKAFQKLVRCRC
`CCCN(CCC)C1CCc2cccc(O)c2C1` (configuration not stated) came in with a Ki of 1.77 µM. In other words, the single-digit micromolar range. In the case of `COc1ccc2[nH]cc(CCN(C)C)c2c1` [3-(2-DIMETHYLAMINOETHYL)-5-METHOXYINDOLE] it was 0.037 µM. With `O=C(c1ccc(F)cc1)C1CCN(CCn2c(=O)[nH]c3ccccc3c2=O)CC1` [3-(2-{4-[(4-fluorophenyl)carbonyl]piperidin-1-yl}ethyl)-1,2,3,4-tetrahydroquinazoline-2,4-dione], the Ki was more than 10 µM.

As to `Cn1cc(CCN)c2cc(O)ccc21` [5-HT,omega-N-Me], the Ki was 0.184 µM. In turn, `O=C(CCCN1CCC2(CC1)C(=O)NCN2c1ccccc1)c1ccc(F)cc1` [8-[4-(4-fluorophenyl)-4-oxidanylidene-butyl]-1-phenyl-1,3,8-triazaspiro[4.5]decan-4-one] displayed a Ki of more than 10 µM. The molecule `CC(C)NCC(O)COc1cccc2[nH]ccc12` (configuration not stated) [LB-46] registered a Ki of more than 10 µM.

With `CN1C[C@@H](NS(=O)(=O)N(C)C)C[C@@H]2c3cccc4c3c(cn4C)C[C@H]21` [MESULERGINE], the Ki was more than 10 µM. `CCCN(CCC)CCc1c[nH]c2ccc(C(N)=O)cc12` [NN-DIPROP-5-CT] had a Ki of 1.61 µM.

`COc1cc(N)c(Cl)cc1C(=O)NC1CN2CCC1CC2` (configuration not stated) [ZACOPRIDE,R] displayed an inhibition constant Ki of more than 10 µM.

`COc1cc(CC(C)N)c(OC)cc1I` (configuration not stated) [[125I]2,5-dimethoxy-4-iodoamphetamine] came in with a Ki of 1.74 µM. In the case of `CSc1ccc2c(c1)C(N1CCN(C)CC1)Cc1ccccc1S2` (configuration not stated) [methanesulfonic acid;1-methyl-4-(3-methylsulfanyl-5,6-dihydrobenzo[b][1]benzothiepin-5-yl)piperazine] it was 0.652 µM; in that of `COc1ccc2[nH]cc(CCN)c2c1` [tryptamine, 5-Methoxy], 1.17 µM.

These data come from BindingDB's records for doi:10.1073/pnas.90.2.408 (Synaptic Pharmaceutical, 1993).
